From paper PMC5803267, “A small molecule inhibitor of Rheb selectively targets mTORC1 signaling” (Nature Communications, 2018)

Columns and labels:
[1] = target: T1, Rheb-dependent mTORC1 kinase activity (Homo sapiens, UniProt Q15382); assay: Rheb-dependent mTORC1 in vitro kinase assay (Rheb-IVK); format: biochemical; settings: for inhibition of mTORC1 activity in the Rheb-IVK: result in words
T1 construct: using full-length Rheb and mTORC1 purified from mammalian cells via a Flag-Raptor handle; made in house; host or cells: HA-GST-Rheb: Freestyle 293-F cells transfected with pRK5-HA-GST-Rheb; mTORC1: HEK-293E cells stably expressing FLAG-Raptor

[2] = tested on: S473pAKT (mTORC2) in PC3 cells; assay: Chronic treatment of PC3 cells, S473pAKT Western blot; format: cell-based, human; settings: PC3, replete, 24 h; NR1 30 µM, rapamycin 100 nM
Experimental: (§1) MCF-7 cells were serum-starved for 16 h and treated with compound for 90 min before cell lysis and Western blot analysis. For insulin-stimulated cells, 100 nM insulin was added 30 min before cell lysis. For EGF-stimulated cells, 100 ng mL^−1 EGF was added 10 min before cell lysis. c Rap1 activity was detected in lysates loaded in vitro with either GDP or GTPγS and treated with NR1 at the indicated concentrations. This was followed by a subsequent pulldown of GST-RalGDS-RBD. Bound Rap1 was detected by Western blot. d Evaluation of NR1 in a LAM patient-derived cell line (TRI102) under replete and serum-starved conditions. For replete conditions, TRI102 cells were treated for 90 min with compound in DMEM + 10% FBS. For serum-starved conditions, TRI102 cells were serum-starved 16 h and then treated for 90 min with compound prior to cell lysis and Western blot analysis. e HEK293 cells co-transfected with the indicated mTOR constructs and HA-GST-S6K1 were starved of amino acids or treated with NR1. To assess mTORC1 activity, an HA IP was performed and Western blots probed for ^T389pS6K1. f Chronic treatment of PC3 cells with NR1 to evaluate the inhibition of mTORC1 (using ^T389pS6K1) versus mTORC2 (using ^S473pAKT). PC3 cells were treated with compound under replete conditions for 24 h prior to cell lysis and Western blot analysis.
(§2) Accordingly, a hallmark of a selective mTORC1 inhibitor such as NR1 would be the lack of mTORC2 inhibition irrespective of the duration of treatment. PC3 cells are sensitive to mTORC2 inhibition with long-term rapamycin treatment. Indeed, upon treatment with rapamycin for 24 h, both ^T389pS6K1 and ^S473pAKT were lowered, indicating inhibitory effects on both mTORC1 and mTORC2, respectively.
(§3) For Western-based signaling assays, cells were treated for either 90 min or 2–24 h as indicated before lysis, normalization, and Western analysis. Cells were lysed in Triton lysis buffer: 1% Triton X-100, 50 mM HEPES pH 7.4, 100 mM NaCl, 2 mM EDTA, 10 mM β-glycerophosphate, 10 mM Na-pyrophosphate, protease inhibitor.

[3] = tested on: T389pS6K1 (mTORC1) in PC3 cells; assay: Chronic treatment of PC3 cells, T389pS6K1 Western blot; format: cell-based, human; settings: PC3, replete, 24 h; NR1 30 µM, rapamycin 100 nM
Experimental: as §1, §2, §3

T1 sequence (Q15382 1-181 limits assumed): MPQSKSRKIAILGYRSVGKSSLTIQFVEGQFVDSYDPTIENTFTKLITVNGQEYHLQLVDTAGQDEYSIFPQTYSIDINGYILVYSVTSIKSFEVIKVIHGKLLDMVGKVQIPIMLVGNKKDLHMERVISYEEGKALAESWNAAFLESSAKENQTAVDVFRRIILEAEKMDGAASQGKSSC

inhibition of mTORC1 activity in the Rheb-IVK [1] | IC50 ([1]; LanthaScreen TR-FRET format, T46p4E-BP1 antibody, read-out: IC50 in the Rheb-IVK) [nM] | Compound | S473pAKT after 24 h treatment [2] | T389pS6K1 after 24 h treatment [3]
no inhibition | – | CO[C@H]1C[C@@H]2CC[C@@H](C)[C@@](O)(O2)C(=O)C(=O)N2CCCC[C@H]2C(=O)O[C@H]([C@H](C)C[C@@H]2CC[C@@H](O)[C@H](OC)C2)CC(=O)[C@H](C)/C=C(\C)[C@@H](O)[C@@H](OC)C(=O)[C@H](C)C[C@H](C)/C=C/C=C/C=C/1C [rapamycin, reference compound] | lowered | lowered
inhibited mTORC1 activity | 2 | CCC(=O)N1CCN(c2ccc(-n3c(=O)ccc4cnc5ccc(-c6cnc7ccccc7c6)cc5c43)cc2C(F)(F)F)CC1 [Torin-1] | – | –
